Measurements reported in patent publication US20130230511A1, “BIOMARKERS FOR RESPONSE TO TYROSINE KINASE PATHWAY INHIBITORS IN CANCER” (BOARD OF REGENTS, THE UNIVERSITY OF TEXAS SYSTEM, priority 2012, published 2013).

Columns and labels:
NSCLC cell line H23 = assay: MTS assay of in vitro resistance to cisplatin and carboplatin, with KDR siRNA knockdown; type: cell-based; conditions: for decrease in IC50 caused by knockdown of KDR: H23 cells, siKDR knockdown versus untransfected, P<0.05; for IC50: MTS assay, 72 h drug exposure
Procedure: Cisplatin and carboplatin sensitivity was determined by MTS (3-(4,5-dimethylthiazol-2-yl)-5-(3-carboxymethoxyphenyl)-2-(4-sulfophenyl)-2H-tetrazolium, inner salt) assay for each cell line and the concentration required for 50% growth inhibition (IC50) was determined.
NSCLC cells were transfected with siRNA targeting KDR and control siRNA (OriGene Technology, Md., USA) at a final concentration of 10 nM using Lipofectamine RNAiMAX (Invitrogen, CA, USA) according to the manufacturer's instructions. Medium was replaced after 24 h. To verify the knockdown efficiency, mRNA and protein of transfected cells were collected for real-time RT-PCR and Western blot analyses.
The assessment of in vitro resistance to cisplatin and carboplatin was determined by the MTS assay. NSCLC cell lines were seeded in octuplicate at a density of 2,000 per well in 96-well plates. The following day, cells were treated with cisplatin and carboplatin at various concentrations ranging from 0 to 120 μmol/L for cisplatin and 0 to 200 μmol/L for carboplatin. After 72 h of drug exposure, 20 μL of MTS solution was added per well. Cells were incubated for 1-4 hours at 37° C. and read at a wavelength of 490 nm.
To investigate the role of KDR CNG and VEGFR-2 overexpression in resistance to both cisplatin and carboplatin, siRNA was utilized to knockdown KDR expression in H23 and H461 NSCLC cell lines, which contain 6-9 KDR gene copies. […] To evaluate the effect of KDR overexpression on sensitivity to cisplatin and carboplatin, the expression of KDR was inhibited by transfecting H23 and H461 cells with control siRNA or siRNA targeting KDR and then treating the cells with increasing concentrations of the chemotherapy drugs. Cell viability was evaluated by MTS assay.

[1] = tested on: HIF-1α-regulated proteins (EZH2, Met, phosphorylated Met); assay: Changes in HIF-1α-regulated proteins in VEGFR amplified cell lines; type: cell-based; conditions: H23 and Calu1 cells (VEGFR CNGs)
Procedure: Two VEGFR amplified cell lines, H23 and Calu1, were treated with the VEGFR pathway inhibitor bevacizumab and evaluated for changes in proteins regulated by HIF-1α.
In addition, two VEGFR amplified cell lines, H23 and Calu1, were treated with the VEGFR pathway inhibitor bevacizumab and changes in proteins regulated by HIF-1α were evaluated.

H23 cells = conditions: which harbor VEGFR (KDR) CNGs
HIF-1α = conditions: H23 cells (KDR CNG+), ELISA
Procedure: For HIF-1 expression analysis, the cells were serum-starved for 24 h and stimulated with 50 ng/mL VEGF-A (R&D Systems, MN, USA). Cells were incubated in normoxia and protein lysates were collected after 8 h. HIF-1α ELISA (R&D Systems, MN, USA) was performed according to the manufacturer's instructions.

[2] = untransfected (non-transfected) H23 cells

With `N.N.[Cl][Pt][Cl]` [cisplatin] the “decrease in IC50 caused by knockdown of KDR” value (NSCLC cell line H23) was 1.9 fold, the IC50 (NSCLC cell line H23; siKDR knockdown H23 cells) was 53 µM and the IC50 (NSCLC cell line H23; [2]) was 97.9 µM.

With `N.N.O=C([O-])C1(C(=O)[O-])CCC1.[Pt+2]` [carboplatin] the “decrease in IC50 caused by knockdown of KDR” value (NSCLC cell line H23) was 3.5 fold, the IC50 (NSCLC cell line H23; siKDR knockdown H23 cells) was 27.9 µM and the IC50 (NSCLC cell line H23; [2]) was 97 µM.

bevacizumab was tested, and the EZH2 protein [1] was “decreased”, the Met protein [1] was “decreased” and the “phosphorylated Met” value [1] was “decreased”.

In the case of `Cc1ccc(NC(=O)c2ccc(CN3CCN(C)CC3)cc2)cc1Nc1nccc(-c2cccnc2)n1` [imatinib], the cell migration (H23 cells) is reported as “does not inhibit cellular migration” and the HIF-1α levels (HIF-1α) is reported as “did not affect”.
